Measurements: patent US20230218573A1, “INDOLE COMPOUNDS FOR THE TREATMENT OF NEURODEGENERATIVE DISEASES” (GALYAN BIO, INC., priority 2020, published 2023)

Columns and labels:
[1] = test system: STHdh 111/111 striatal cells; assay: Cell viability (CellTiter Glo) of heat shocked STHdh 111/111 striatal cells; assay type: cell-based, mouse
Experimental: Cell culture - ST HDH Q111/111 (CH00095, Coriell Institute) striatal derived cell line were grown at 33° C. in DMEM (Sigma-Aldrich), supplemented with 10% fetal bovine serum (FBS), 1% Penicillin-Streptomycin (ThermoFisher Scientific), and 0.4 mg/ml G418 (Geneticin; Invitrogen). ST HDH Q111/111 are mouse striatal cells with polyQ length of 1111.
Pre-Treatment of striatal cell line - First the medium was removed and new DMEM (DMEM, high glucose, HEPES, no phenol red) medium, supplemented with 10% fetal bovine serum (FBS), 1% Penicillin-Streptomycin, containing 10 µM compound was added. The cells were incubated at 33° C. for 24 hours.
Heat shock - Cells were heat shocked for 3 hours at 41° C.
Treatment - Medium was removed and new DMEM (DMEM, high glucose, HEPES, no phenol red) medium, supplemented with 1% fetal bovine serum (FBS), 1% Penicillin-Streptomycin, containing 10 µM compound was added. The cells were incubated at 33° C. for 48 hours.
Cell Viability - Cell viability was measured according to manufacturer recommendations with CellTiter Glo (Promega). 96-well plates for used either for cell viability determination or cell staining.

[2] = Microsomal stability in mice; assay type: in vitro ADME
Exon1 Q46 = assay: Circular dichroism of Exon1 Q46, predominantly α-helical state; assay type: biochemical; settings: increasing doses
Experimental: Protein samples were diluted with buffer to 7.5 µM prior to Circular Dichroism (CD) measurements. Measurements were conducted at room temperature.
Four spectra at each measurement were taken every 1 nm from 200 to 260 nm, scanning at 50 nm/min with an averaging time of 1 sec. Spectra were obtained from samples in 20 mM phosphate, pH 7.4. Ten scans were averaged for each sample spectrum
Single-wavelength readings at 222 nm were obtained. After subtraction of the Trx contribution, the α-helical content of Httex1 was estimated from its mean residue ellipticity (MREHttex1) at 222 nm. This calculation was conducted as described by Bravo-Arredondo (Bravo-Arredondo, J.M. et al., J Biol Chem. 2018 Dec 21;293(51):19613-19623).
MRE Exon-1 […] and Q46 (Mean Residue Ellipticity) was measured every 1 sec for 300 sec; the 301 readings for each sample were averaged and MRE Trx subtracted. The number of amino acids in each sample to experience a change in helicity was estimated using a previously developed helix-coil transition model, which gave the change in fraction of helicity (ΔfHelix) by the following equation: […]
where MRE Exon1 Q26 or Q46 (MREHttex1 in the formula) describes the helix-coil transition, obtained from the difference between MRE Eon1 Q26 or Q46 at 222 nm of the fusion protein at the given temperature (in our case 37° C.) and the product of MRE Trx at 222 nm at the same temperature and the fraction of residues comprised by Trx in that particular construct, and
In order to calculate an equilibrium of the two states model, percent α-helicity was calculated using the relation of MREHttex1 = 0 and -34700 (deg cm^2 dmol^-1) for 0% and 100% helicity, respectively.
The CD measurements protocol for Compound 101 was the same as outlined above except that from 206 nm - 210 nm and 220 nm - 224 nm, the step size was 0.2 nm, and the bandwidth was 1 nm.

Exon1 Q46 protein = molecular target: T1, Exon1 Q46 protein (Homo sapiens, UniProt P42858, INS38QQQQQQQQQQQQQQQQQQQQQQQQQ); assay: Kd to Exon1 Q46 protein; assay type: binding
T1 construct: fused on or other part: E. coli thioredoxin (TRX) at the N-terminus as a solubility handle; linker […]; C-terminal GSG-His6 tag
T1 sequence (P42858 whole entry, looked up, stated change not applied, the tested form may be a part): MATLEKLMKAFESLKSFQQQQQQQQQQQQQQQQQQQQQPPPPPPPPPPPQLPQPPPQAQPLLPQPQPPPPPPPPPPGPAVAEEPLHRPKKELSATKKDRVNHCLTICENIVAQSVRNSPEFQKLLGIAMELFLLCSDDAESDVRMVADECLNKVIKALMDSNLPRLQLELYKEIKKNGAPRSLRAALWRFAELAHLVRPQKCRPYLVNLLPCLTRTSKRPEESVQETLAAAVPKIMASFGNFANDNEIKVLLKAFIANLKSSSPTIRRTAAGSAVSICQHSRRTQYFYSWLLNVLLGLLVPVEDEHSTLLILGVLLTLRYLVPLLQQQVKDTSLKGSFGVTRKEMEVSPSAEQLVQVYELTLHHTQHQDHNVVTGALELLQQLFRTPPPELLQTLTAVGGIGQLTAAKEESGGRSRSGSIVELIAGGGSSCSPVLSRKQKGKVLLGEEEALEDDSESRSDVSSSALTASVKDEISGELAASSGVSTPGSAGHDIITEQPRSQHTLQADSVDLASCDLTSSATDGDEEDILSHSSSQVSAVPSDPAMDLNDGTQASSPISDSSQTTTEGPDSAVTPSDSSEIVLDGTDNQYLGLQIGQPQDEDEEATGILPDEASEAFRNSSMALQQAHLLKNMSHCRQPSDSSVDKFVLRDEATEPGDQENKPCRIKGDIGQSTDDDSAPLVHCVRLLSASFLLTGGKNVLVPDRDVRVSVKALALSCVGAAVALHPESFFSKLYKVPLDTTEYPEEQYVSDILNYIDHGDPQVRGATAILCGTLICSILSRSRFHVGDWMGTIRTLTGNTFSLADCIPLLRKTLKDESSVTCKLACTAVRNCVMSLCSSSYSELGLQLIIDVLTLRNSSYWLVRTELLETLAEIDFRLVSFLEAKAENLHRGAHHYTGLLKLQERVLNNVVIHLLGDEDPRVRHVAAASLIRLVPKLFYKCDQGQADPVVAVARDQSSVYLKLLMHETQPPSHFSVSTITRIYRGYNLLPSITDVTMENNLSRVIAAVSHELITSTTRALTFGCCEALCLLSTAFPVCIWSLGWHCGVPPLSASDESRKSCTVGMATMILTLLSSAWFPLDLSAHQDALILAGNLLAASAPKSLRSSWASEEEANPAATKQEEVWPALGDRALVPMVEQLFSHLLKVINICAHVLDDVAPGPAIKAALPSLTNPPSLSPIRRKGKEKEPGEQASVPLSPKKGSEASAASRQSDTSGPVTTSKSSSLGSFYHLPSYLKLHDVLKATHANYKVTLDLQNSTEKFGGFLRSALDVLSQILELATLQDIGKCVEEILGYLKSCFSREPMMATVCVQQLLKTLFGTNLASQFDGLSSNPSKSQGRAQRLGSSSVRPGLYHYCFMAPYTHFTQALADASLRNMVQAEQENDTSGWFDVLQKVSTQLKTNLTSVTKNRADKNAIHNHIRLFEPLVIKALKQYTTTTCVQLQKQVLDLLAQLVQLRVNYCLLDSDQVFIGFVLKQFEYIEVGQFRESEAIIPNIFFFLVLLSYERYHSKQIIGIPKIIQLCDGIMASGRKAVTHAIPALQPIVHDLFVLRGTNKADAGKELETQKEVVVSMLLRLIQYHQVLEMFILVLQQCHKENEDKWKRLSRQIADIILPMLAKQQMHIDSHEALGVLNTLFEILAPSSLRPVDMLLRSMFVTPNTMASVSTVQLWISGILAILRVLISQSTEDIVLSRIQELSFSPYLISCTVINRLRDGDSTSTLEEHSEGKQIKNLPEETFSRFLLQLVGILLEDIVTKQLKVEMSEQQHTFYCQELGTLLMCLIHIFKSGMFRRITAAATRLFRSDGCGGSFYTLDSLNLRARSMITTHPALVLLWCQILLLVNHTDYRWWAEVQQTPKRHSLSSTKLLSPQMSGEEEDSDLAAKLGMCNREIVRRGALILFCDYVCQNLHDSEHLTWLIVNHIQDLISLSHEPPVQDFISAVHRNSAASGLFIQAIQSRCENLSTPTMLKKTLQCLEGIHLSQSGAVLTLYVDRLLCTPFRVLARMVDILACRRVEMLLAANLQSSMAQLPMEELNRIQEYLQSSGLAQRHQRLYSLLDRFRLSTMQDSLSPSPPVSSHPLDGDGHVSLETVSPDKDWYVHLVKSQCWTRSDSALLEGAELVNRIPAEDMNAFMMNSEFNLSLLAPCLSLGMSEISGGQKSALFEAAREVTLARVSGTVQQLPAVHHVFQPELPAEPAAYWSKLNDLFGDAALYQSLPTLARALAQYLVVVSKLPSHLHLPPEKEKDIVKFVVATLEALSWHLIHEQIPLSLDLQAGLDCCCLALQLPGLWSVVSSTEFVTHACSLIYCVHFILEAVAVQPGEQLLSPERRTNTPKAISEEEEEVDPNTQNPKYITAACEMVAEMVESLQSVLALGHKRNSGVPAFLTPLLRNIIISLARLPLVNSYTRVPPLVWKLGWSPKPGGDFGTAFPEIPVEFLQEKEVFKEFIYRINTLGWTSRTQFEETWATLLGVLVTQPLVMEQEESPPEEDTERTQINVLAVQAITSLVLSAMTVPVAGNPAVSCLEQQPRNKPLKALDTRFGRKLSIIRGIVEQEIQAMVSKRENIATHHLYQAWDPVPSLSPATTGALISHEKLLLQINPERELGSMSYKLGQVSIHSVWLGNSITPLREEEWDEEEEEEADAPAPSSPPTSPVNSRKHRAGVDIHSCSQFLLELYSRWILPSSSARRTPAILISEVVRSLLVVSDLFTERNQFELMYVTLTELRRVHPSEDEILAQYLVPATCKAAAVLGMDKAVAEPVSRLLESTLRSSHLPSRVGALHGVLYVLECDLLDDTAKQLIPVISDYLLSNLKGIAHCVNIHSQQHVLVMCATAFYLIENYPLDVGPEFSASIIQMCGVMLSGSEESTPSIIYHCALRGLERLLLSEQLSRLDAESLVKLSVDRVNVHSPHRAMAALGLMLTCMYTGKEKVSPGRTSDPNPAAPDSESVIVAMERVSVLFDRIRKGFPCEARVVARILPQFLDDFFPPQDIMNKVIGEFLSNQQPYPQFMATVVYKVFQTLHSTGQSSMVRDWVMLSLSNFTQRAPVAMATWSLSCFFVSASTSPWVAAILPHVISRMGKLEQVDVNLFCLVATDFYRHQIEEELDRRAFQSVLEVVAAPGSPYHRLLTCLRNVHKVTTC

NGFR = assay: Nanostring gene expression in STHdh 111/111 cells: NGFR; assay type: cell-based, mouse; settings: treated STHdh 111/111 (Q111-10), 48 h; in comparison to untreated STHdh 111/111
Experimental: Gene expression of certain transcripts of interest were measured using Nanostring Technology. […] Some STHdh 7/7 and STHdh 111/111 cell samples were not heat shocked and some wells were treated with Compound 22 at the indicated concentration on for 48 hours (Table 12). Some STHdh 7/7 and STHdh 111/111 cell samples were heat shocked for 3 hours some wells were treated with Compound 22 at the indicated concentration on for 48 hours (Table 13). Cells are washed with PBS, trypsinised, and gathered in a 15 ml falcon tube. After a short spin down for 3 minutes at 300 g, the cell pellet was washed with PBS once, before it was frozen down in liquid nitrogen. RNA was extracted with a standard protocol. The nCounter® Mouse Neuropathology Panel (Nanostring, Seattle) was used for gene expression analysis according to the manufacturer’s protocols.

In the case of `Cc1[nH]c2ccc(C(=O)NCCN(C(C)C)C(C)C)cc2c1C` [Compound 22], the viability at 10 µM ([1]; Mus musculus, STHdh 111/111, 10 µM, 48 hours treatment, read-out: Cell Viability striatal cells 3h heat shocked) is reported as 102%, the “cell viability in comparison to pre-heat shock cell viability” value ([1]; STHdh 111/111, 48 hours after 3 hours heat shock) is reported as 125% and the “cell viability at 24 hours after treatment” value ([1]; STHdh 111/111 after heat shock, versus STHdh 7/7 control cells) is reported as “almost equivalent to the cell viability of STHdh 7/7 control cells”. The microsomal stability [2] was “short”, the “effect of increasing doses on the predominantly α-helical state of Exon1 Q46” value (Exon1 Q46) was “decreases the proportion of a predominantly α-helical state” and the Kd (Exon1 Q46 protein) was 700 nM. For the same compound, the “NGFR expression increased by” value (NGFR) was 60%.
